Test [1] concerns the target JAK2 (Homo sapiens (Human), UniProt O60674). In words: Jak biochemical HTRF assay, JAK2. To be noted: HTRF biochemical assay, recombinant GST-tagged catalytic domain; read-out: JAK2 IC50. On the technique in general: In TR-FRET formats the signal depends on donor and acceptor labels being close together.
Test [2] concerns the target JAK1 (Homo sapiens (Human), UniProt P23458). Put plainly: Jak biochemical HTRF assay, JAK1. To be noted: HTRF biochemical assay, recombinant GST-tagged catalytic domain; read-out: JAK1 IC50.

JAK2, sequence (O60674 849-1124): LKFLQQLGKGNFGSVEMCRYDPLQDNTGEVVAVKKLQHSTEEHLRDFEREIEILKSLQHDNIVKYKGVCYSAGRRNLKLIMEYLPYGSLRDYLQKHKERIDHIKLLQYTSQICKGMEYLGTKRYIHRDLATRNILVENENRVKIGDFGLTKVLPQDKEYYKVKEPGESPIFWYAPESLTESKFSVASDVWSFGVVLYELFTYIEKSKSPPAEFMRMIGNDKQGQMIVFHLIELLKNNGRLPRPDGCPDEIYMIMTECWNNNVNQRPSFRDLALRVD
JAK1, sequence (P23458 875-1153): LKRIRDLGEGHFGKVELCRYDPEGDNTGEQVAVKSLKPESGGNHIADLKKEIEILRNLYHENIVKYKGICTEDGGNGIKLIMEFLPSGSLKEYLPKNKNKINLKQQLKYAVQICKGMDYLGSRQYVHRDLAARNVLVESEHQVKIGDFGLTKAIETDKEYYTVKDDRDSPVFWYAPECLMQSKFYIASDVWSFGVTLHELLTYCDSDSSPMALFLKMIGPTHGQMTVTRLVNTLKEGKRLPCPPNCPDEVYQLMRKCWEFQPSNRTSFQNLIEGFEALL

A word on the IC50: it is the point on the concentration scale where inhibition reaches its midpoint. Take `Cc1cc(Nc2nn([C@H]3CCCC[C@@H]3C#N)c3cc[nH]c(=O)c23)ccc1C(C(C)C)n1ccnn1` (single isomer, unassigned) [Example 15-38, (1S,2S)-2-[3-({3-methyl-4-[(1R or 1S)-2-methyl-1-(1H-1,2,3-triazol-1-yl)propyl]phenyl}amino)-4-oxo-4,5-dihydro-1H-pyrazolo[4,3-c]pyridin-1-yl]cyclohexanecarbonitrile]: the IC50 in test [1] worked out at 0.15 nM; in test [2], 0.06 nM.

With `Cc1cc(Nc2nn([C@@H]3CCCCC[C@H]3C#N)c3cc[nH]c(=O)c23)ccc1C(=O)N1CCCC1` (single isomer, unassigned) [Example 15-45, (1R,2R or 1S,2S)-2-(3-{[3-methyl-4-(pyrrolidin-1-ylcarbonyl)phenyl]amino}-4-oxo-4,5-dihydro-1H-pyrazolo[4,3-c]pyridin-1-yl)cycloheptanecarbonitrile], the IC50 turned out to be 0.41 nM in test [1] and 0.43 nM in test [2].

Take `Cc1cc(Nc2nn([C@H]3CCCCC[C@@H]3C#N)c3cc[nH]c(=O)c23)ccc1C(=O)N1CCCC1` (single isomer, unassigned) [Example 15-47, (1S,2S or 1R,2R)-2-(3-{[3-methyl-4-(pyrrolidin-1-ylcarbonyl)phenyl]amino}-4-oxo-4,5-dihydro-1H-pyrazolo[4,3-c]pyridin-1-yl)cycloheptanecarbonitrile]: the results for the IC50 in test [1] and in test [2] were 14 nM and 19 nM, respectively.

As to `CN(C(C)(C)C)S(=O)(=O)c1ccc(Nc2nn([C@H]3CCCCC[C@@H]3C#N)c3cc[nH]c(=O)c23)cc1` (single isomer, unassigned) [Example 15-48, N-tert-butyl-4-({1-[(1S,2S or 1R,2R)-2-cyanocycloheptyl]-4-oxo-4,5-dihydro-1H-pyrazolo[4,3-c]pyridin-3-yl}amino)-N-methylbenzenesulfonamide], the IC50 in test [1] is 18 nM; in test [2], 19 nM.

Take `CN(C(C)(C)C)S(=O)(=O)c1ccc(Nc2nn([C@@H]3CCCCC[C@H]3C#N)c3cc[nH]c(=O)c23)cc1` (single isomer, unassigned) [Example 15-51, N-tert-butyl-4-({1-[(1R,2R or 1S,2S)-2-cyanocycloheptyl]-4-oxo-4,5-dihydro-1H-pyrazolo[4,3-c]pyridin-3-yl}amino)-N-methylbenzenesulfonamide]: the half-inhibitory concentration (IC50) was 0.37 nM in test [1] and 0.23 nM in test [2].

For the compound `N#C[C@H]1CCCCC[C@@H]1n1nc(Nc2ccc3c(c2)CN(C2CCOCC2)S3(=O)=O)c2c(=O)[nH]ccc21` (single isomer, unassigned) [Example 15-54, (1S,2S or 1R,2R)-2-(3-{[1,1-dioxido-2-(tetrahydro-2H-pyran-4-yl)-2,3-dihydro-1,2-benzisothiazol-5-yl]amino}-4-oxo-4,5-dihydro-1H-pyrazolo[4,3-c]pyridin-1-yl)cycloheptanecarbonitrile], the IC50 in test [1] was 0.4 nM; in test [2], 0.081 nM.

With `CC(C)C(c1ccc(Nc2nn([C@H]3CCCC[C@@H]3C#N)c3cc[nH]c(=O)c23)cc1)n1cc(C(=O)OC(C)(C)C)nn1` (single isomer, unassigned) [Example 15-57, tert-butyl 1-{(1S or 1R)-1-[4-({1-[(1S,2S)-2-cyanocyclohexyl]-4-oxo-4,5-dihydro-1H-pyrazolo[4,3-c]pyridin-3-yl}amino)phenyl]-2-methylpropyl}-1H-1,2,3-triazole-4-carboxylate], the IC50 is 1.2 nM in test [1] and 0.62 nM in test [2].

As for `CC(C)C(c1ccc(Nc2nn([C@H]3CCCC[C@@H]3C#N)c3cc[nH]c(=O)c23)cc1)n1cc(C(=O)OC(C)(C)C)nn1` (single isomer, unassigned) [Example 15-58, tert-butyl 1-{(1R or 1S)-1-[4-({1-[(1S,2S)-2-cyanocyclohexyl]-4-oxo-4,5-dihydro-1H-pyrazolo[4,3-c]pyridin-3-yl}amino)phenyl]-2-methylpropyl}-1H-1,2,3-triazole-4-carboxylate], the IC50 worked out at 3.1 nM in test [1] and 1.8 nM in test [2].

`Cc1cc(Nc2nn([C@@H]3CCCCC[C@H]3C#N)c3cc[nH]c(=O)c23)ccc1C(O)C(F)(F)F` (single isomer, unassigned) [Example 15-67, (1R,2R or 1S,2S)-2-[3-({3-methyl-4-[(1S or 1R)-2,2,2-trifluoro-1-hydroxyethyl]phenyl}amino)-4-oxo-4,5-dihydro-1H-pyrazolo[4,3-c]pyridin-1-yl]cycloheptanecarbonitrile]: the 50% inhibitory concentration (IC50) amounted to 3.9 nM in test [1] and 0.38 nM in test [2].

For the compound `Cc1cc(Nc2nn([C@@H]3CCCCC[C@H]3C#N)c3cc[nH]c(=O)c23)ccc1C(O)C(F)(F)F` (single isomer, unassigned) [Example 15-68, (1R,2R or 1S,2S)-2-[3-({3-methyl-4-[(1R or 1S)-2,2,2-trifluoro-1-hydroxyethyl]phenyl}amino)-4-oxo-4,5-dihydro-1H-pyrazolo[4,3-c]pyridin-1-yl]cycloheptanecarbonitrile], the values for the IC50 in test [1] and in test [2] were 1.2 nM and 0.26 nM, respectively.

With `CC(C)N1Cc2cc(Nc3nn([C@H]4CCCC[C@@H]4C#N)c4cc[nH]c(=O)c34)ccc2C1C` (single isomer, unassigned) [Example 19-1, (1S,2S)-2-(3-(((S or R)-2-isopropyl-1-methylisoindolin-5-yl)amino)-4-oxo-4,5-dihydro-1H-pyrazolo[4,3-c]pyridin-1-yl)cyclohexanecarbonitrile], the results for the IC50 in test [1] and in test [2] were 0.89 nM and 0.91 nM, respectively.

Take `CC(C)N1Cc2cc(Nc3nn([C@H]4CCCC[C@@H]4C#N)c4cc[nH]c(=O)c34)ccc2C1C` (single isomer, unassigned) [Example 19-2, (1S,2S)-2-(3-(((R or S)-2-isopropyl-1-methylisoindolin-5-yl)amino)-4-oxo-4,5-dihydro-1H-pyrazolo[4,3-c]pyridin-1-yl)cyclohexanecarbonitrile]: the IC50 in test [1] amounted to 0.45 nM; in test [2] it was 0.47 nM.

`C[C@H](NC1CCC(n2nc(Nc3ccc(Cl)cc3)c3c(=O)[nH]ccc32)C(C#N)C1)C1CC1` (stereo in doubt) [Example 4-1, (1R,2R,5S)-2-(3-((4-Chlorophenyl)amino)-4-oxo-4,5-dihydro-1H-pyrazolo[4,3-c]pyridin-1-yl)-5-(((S)-1-cyclopropylethyl)amino)cyclohexanecarbonitrile]: the results for the IC50 in test [1] and in test [2] were 122 nM and 5.3 nM, respectively.

`C[C@H](NC1CCC(n2nc(Nc3ccc(Cl)cc3)c3c(=O)[nH]ccc32)C(C#N)C1)C1CC1` (stereo in doubt) [Example 4-2, (1S,2S,5R)-2-(3-((4-Chlorophenyl)amino)-4-oxo-4,5-dihydro-1H-pyrazolo[4,3-c]pyridin-1-yl)-5-(((S)-1-cyclopropylethyl)amino)cyclohexanecarbonitrile]: the results for the IC50 in test [1] and in test [2] were greater than 1500 nM and 84 nM, respectively.

For the compound `C[C@H](NC1CCC(n2nc(Nc3ccc(Cl)cc3)c3c(=O)[nH]ccc32)C(C#N)C1)C1CC1` (stereo in doubt) [Example 4-3, (1R,2R,5R)-2-(3-((4-Chlorophenyl)amino)-4-oxo-4,5-dihydro-1H-pyrazolo[4,3-c]pyridin-1-yl)-5-(((S)-1-cyclopropylethyl)amino)cyclohexanecarbonitrile], the IC50 in test [1] stood at 13 nM; in test [2], 0.3 nM.

Take `C[C@H](NC1CCC(n2nc(Nc3ccc(Cl)cc3)c3c(=O)[nH]ccc32)C(C#N)C1)C1CC1` (stereo in doubt) [Example 4-4, (1S,2S,5S)-2-(3-((4-Chlorophenyl)amino)-4-oxo-4,5-dihydro-1H-pyrazolo[4,3-c]pyridin-1-yl)-5-(((S)-1-cyclopropylethyl)amino)cyclohexanecarbonitrile]: the IC50 in test [1] came to 525 nM; in test [2], 7.8 nM.

Consider `N#C[C@@H]1CCCC[C@H]1n1nc(Nc2ccnc(F)c2)c2c(=O)[nH]ccc21` [Example 3-1, (1R,2R)-2-{3-[(2-Fluoropyridin-4-yl)amino]-4-oxo-4,5-dihydro-1H-pyrazolo[4,3-c]pyridin-1-yl}cyclohexanecarbonitrile], for which the IC50 is 97 nM in test [1] and 18 nM in test [2].

Turning to `N#C[C@H]1CCCC[C@@H]1n1nc(Nc2ccnc(F)c2)c2c(=O)[nH]ccc21` [Example 3-2, (1S,2S)-2-{3-[(2-fluoropyridin-4-yl)amino]-4-oxo-4,5-dihydro-1H-pyrazolo[4,3-c]pyridin-1-yl}cyclohexanecarbonitrile], the IC50 in test [1] is 5.4 nM; in test [2], 0.4 nM.

On to `N#C[C@@H]1CCCC[C@H]1n1nc(Nc2ccc(CS(=O)(=O)N3CCCC3)cc2)c2c(=O)[nH]ccc21` [Example 3-3, (1R,2R)-2-(4-oxo-3-((4-((pyrrolidin-1-ylsulfonyl)methyl)phenyl)amino)-4,5-dihydro-1H-pyrazolo[4,3-c]pyridin-1-yl)cyclohexanecarbonitrile], for which the IC50 worked out at 21 nM in test [1] and 6.1 nM in test [2].

As for `CS(=O)(=O)c1ccc(Nc2nn([C@@H]3CCCC[C@H]3C#N)c3cc[nH]c(=O)c23)cc1` [Example 3-4, (1R,2R)-2-(3-{[4-(methylsulfonyl)phenyl]amino}-4-oxo-4,5-dihydro-1H-pyrazolo[4,3-c]pyridin-1-yl)cyclohexanecarbonitrile], the IC50 in test [1] amounted to 16 nM; in test [2], 9.4 nM.

`CS(=O)(=O)c1ccc(Nc2nn([C@H]3CCCC[C@@H]3C#N)c3cc[nH]c(=O)c23)cc1` [Example 3-5, (1S,2S)-2-(3-{[4-(methylsulfonyl)phenyl]amino}-4-oxo-4,5-dihydro-1H-pyrazolo[4,3-c]pyridin-1-yl)cyclohexanecarbonitrile]: the IC50 stood at 0.83 nM in test [1] and 0.12 nM in test [2].

Consider `CN(C)S(=O)(=O)c1ccc(Nc2nn([C@H]3CCCC[C@@H]3C#N)c3cc[nH]c(=O)c23)cc1` [Example 3-6, 4-({1-[(1S,2S)-2-cyanocyclohexyl]-4-oxo-4,5-dihydro-1H-pyrazolo[4,3-c]pyridin-3-yl}amino)-N,N-dimethylbenzenesulfonamide], for which the IC50 in test [1] came to 0.33 nM; in test [2], 0.11 nM.
